Test results: ChEMBL document CHEMBL6134881, “From Natural Products to Small Molecules: Recent Advancements in Anti-MRSA Therapeutics” (ACS Med Chem Lett, 2025)
In brackets after ≈: the same amount, converted by molar mass.

Tested on: Staphylococcus aureus
Assay: Antibacterial activity against methicllin-resistant Staphylococcus aureus
Type: functional
Details: not given

Structure (SMILES)	MIC [µg/mL]
CCCn1c2ccccc2c2c(OCC(O)CCC=C(C)C)cccc21 (configuration not stated)	50 (≈ 142 µM)
CC(C)=CCCC(O)COc1cccc2c1c1ccccc1n2C (configuration not stated)	> 50
CCCCCn1c2ccccc2c2c(OCC(O)CCC=C(C)C)cccc21 (configuration not stated)	6.25 (≈ 16.5 µM)
CC(C)=CCCC(O)COc1cccc2c1c1ccccc1n2CC=C(C)C (configuration not stated)	3.13 (≈ 8.3 µM)
CCCCCCCn1c2ccccc2c2c(OCC(O)CCC=C(C)C)cccc21 (configuration not stated)	12.5 (≈ 30.7 µM)
CCCCCCCCCn1c2ccccc2c2c(OCC(O)CCC=C(C)C)cccc21 (configuration not stated)	6.25 (≈ 14.3 µM)

Tested on: Staphylococcus aureus
Assay: Antibacterial activity against methicillin-resistant Staphylococcus aureus ATCC 33591 assessed as inhibition of bacterial growth incubated for 24 hrs by Mueller-Hinton broth assay
Type: functional
Details: not given

Structure (SMILES)	MIC [µg/mL]
C=CCc1ccc(O)c(-c2ccc(O)c(CC=C)c2)c1 [HONOKIOL]	10 (≈ 37.5 µM)
C=CCc1ccc(O)c(-c2cc(CC=C)ccc2O)c1 [MAGNOLOL]	20 (≈ 75.1 µM)

Tested on: HepG2
Assay: Cytotoxicity against human HepG2 cells assessed as reduction in cell viability by measuring lethal concentration by SRB assay
Type: functional
Details: read-out: LC50 (the source's name)

Structure (SMILES)	CC50 [µg/mL]
OCc1ccc2cc(-c3ccc(O)c(C45CC6CC(CC(C6)C4)C5)c3)ccc2c1	> 32
O=C(O)c1ccc2cc(-c3ccc(O)c(C45CC6CC(CC(C6)C4)C5)c3)ccc2c1 [O-DEMETHYLATED ADAPALENE]	5 (≈ 12.5 µM)

Tested on: Staphylococcus aureus
Assay: Antibacterial activity against methicillin-resistant Staphylococcus aureus ATCC 33591
Type: functional
Details: not given

Structure (SMILES)	MIC [µM]
CNC(=O)c1cc(Oc2ccc(NC(=O)Nc3cccc(C(F)(F)F)c3)cc2)ccn1	> 100
O=C(O)c1c(Sc2ccccc2)c2cc(Cl)ccc2n1Cc1ccc(Cl)cc1	1 (≈ 0.428 µg/mL)
O=C(Nc1ccc2c(c1)OC(F)(F)O2)Nc1ccc(Cl)c(C(F)(F)F)c1	0.3 (≈ 0.118 µg/mL)
CNC(=O)c1cc(Oc2ccc(NC(=O)Nc3ccc(Cl)c(C)c3)cc2)ccn1	> 100
CNC(=O)c1cc(Oc2ccc(NC(=O)Nc3ccccc3)cc2)ccn1	> 100
CCC(c1ccc(O)cc1)C(CC)c1ccc(O)cc1 (configuration not stated)	16 (≈ 4.33 µg/mL)
Oc1c(Cl)cc(Cl)cc1Sc1cc(Cl)cc(Cl)c1O [BITHIONOL]	0.5 (≈ 0.178 µg/mL)
CNC(=O)c1cc(Oc2ccc(NC(=O)Nc3ccc(Cl)c(C(F)(F)F)c3)cc2)ccn1 [SORAFENIB]	3 (≈ 1.39 µg/mL)

Tested on: Staphylococcus aureus
Assay: Antibacterial activity against Staphylococcus aureus assessed as reduction in bacterial growth
Type: functional
Details: not given

MIC [µg/mL]	Structure (SMILES)
0.12 (≈ 0.319 µM)	Cn1cc(-c2ccc(Cn3cnc4c(N5CCNCC5)ncnc43)nc2)nn1
16.6 (≈ 54.3 µM)	Cn1cc(-c2ccc(Cn3cnc4c(N)ncnc43)cc2)nn1
0.25 (≈ 0.666 µM)	Cn1cc(-c2ccc(Cn3cnc4c(N5CCNCC5)ncnc43)cc2)nn1

Tested on: not listed separately
Assay: Solubility of compound
Type: physicochemical
Details: not given

solubility [µM]	Structure (SMILES)
114 (≈ 42.9 µg/mL)	Cn1cc(-c2ccc(Cn3cnc4c(N5CCNCC5)ncnc43)nc2)nn1
31 (≈ 11.6 µg/mL)	Cn1cc(-c2ccc(Cn3cnc4c(N5CCNCC5)ncnc43)cc2)nn1

Tested on: Staphylococcus aureus
Assay: Antibacterial activity against […] Staphylococcus aureus ATCC 29213 assessed as reduction in bacterial growth incubated for 16 to 18 hrs by CLSI protocol based Muller Hinton broth assay
Type: functional
Details: time 16-18 hrs

Structure (SMILES)	MIC [µg/mL]
CC[C@H]1C[C@@H](OC(=O)CS[C@@H]2CC[C@@H](N)C[C@H]2O)[C@]2(C)[C@H](C)C[C@]3(CCC(=O)[C@H]32)[C@@H](C)[C@@H]1O	> 16
C[C@@H]1[C@@H](O)[C@H](C)[C@]23CCC(=O)[C@H]2[C@@](C)([C@H](C)CC3)[C@@H]1OC(=O)CS[C@@H]1CC[C@@H](N)C[C@H]1O	> 32
CC[C@@]1(C)C[C@@H](OC(=O)CSc2ccncc2)[C@]2(C)[C@H](C)CC[C@]3(CCC(=O)[C@H]32)[C@@H](C)[C@@H]1O	0.06 (≈ 0.127 µM)
C[C@@H]1CC[C@@]23CCC(=O)[C@H]2[C@]1(C)[C@H](OC(=O)CSc1ccncc1)CC(=O)[C@@H](O)[C@@H]3C	> 16

Tested on: Staphylococcus aureus
Assay: Antibacterial activity against methicillin-resistant Staphylococcus aureus ATCC 43300 assessed as reduction in bacterial growth incubated for 18 hrs by mueller hinton broth dilution method
Type: functional
Details: not given

Structure (SMILES)	MIC [µg/mL]
CC[N+](CC)=c1sc2c(s1)C(c1ccc(Cl)cc1)Oc1ccc(C)cc1-2.F[B-](F)(F)F (configuration not stated)	3.9
OCc1ccc2cc(-c3ccc(O)c(C45CC6CC(CC(C6)C4)C5)c3)ccc2c1	2 (≈ 5.2 µM)
CC[N+](CC)=c1sc2c(s1)C(c1ccc(Br)cc1)Oc1ccc(C)cc1-2.F[B-](F)(F)F (configuration not stated)	1.95
CC[N+](CC)=c1sc2c(s1)C(c1ccc(F)cc1)Oc1ccc(C)cc1-2.F[B-](F)(F)F (configuration not stated)	16.6
O=C(O)/C=C/c1ccc(-c2ccc(O)c(C34CC5CC(CC(C5)C3)C4)c2)cc1 [ADAROTENE]	2 (≈ 5.34 µM)
O=C(O)c1ccc2cc(-c3ccc(O)c(C45CC6CC(CC(C6)C4)C5)c3)ccc2c1 [O-DEMETHYLATED ADAPALENE]	1 (≈ 2.51 µM)

Tested on: Staphylococcus aureus
Assay: Antibacterial activity against Staphylococcus aureus ATCC 25923 assessed as reduction in bacterial growth incubated for 24 hrs by broth micro-dilution method
Type: functional
Details: not given

Structure (SMILES)	MIC [µg/mL]
C=C[C@]1(C)C[C@@H](OC(=O)CS[C@@H]2CC[C@@H](N)C[C@H]2O)[C@]2(C)[C@H](C)CC[C@]3(CCC(=O)[C@H]32)[C@@H](C)[C@@H]1O [LEFAMULIN]	0.12 (≈ 0.236 µM)
C=C[C@]1(C)C[C@@H](OC(=O)CS[C@@H]2C[C@H]3CC[C@@H](C2)N3C)[C@]2(C)[C@H](C)CC[C@]3(CCC(=O)[C@H]32)[C@@H](C)[C@@H]1O [RETAPAMULIN]	0.25 (≈ 0.483 µM)
C=C[C@]1(C)C[C@@H](OC(=O)CSCCN(CC)CC)[C@]2(C)[C@H](C)CC[C@]3(CCC(=O)[C@H]32)[C@@H](C)[C@@H]1O [TIAMULIN]	0.25 (≈ 0.506 µM)
C=C[C@]1(C)C[C@@H](OC(=O)CSC(C)(C)CNC(=O)[C@H](N)C(C)C)[C@]2(C)[C@H](C)CC[C@]3(CCC(=O)[C@H]32)[C@@H](C)[C@@H]1O [VALNEMULIN]	0.06 (≈ 0.106 µM)
